Legend:
LDHA-86b = target: T1, LDHA-86b (Homo sapiens, UniProt P00338); test: SplitLuc CETSA of LDHA-86b (HEK293T); format: cell-based; conditions: 63 °C for 3.5 min, 384-well PCR plates
T1 construct: Size (a.a., untagged); expressed in transfected cells; host or cells: HEK293T
Protocol: Cells were transfected in T75 flasks using a reverse transfection procedure, where 9 mL of complexes (45 µL Lipofectamine 2000 and 22.5 µg DNA) was combined with 10 mL of HEK293T cell suspension (1 × 10^6 cells/mL, 10 million cells total). After 24 h, cells were harvested by trypsinization, resuspended at 1 × 10^6 cells/ml as described above and dispensed (15 µL cells/well) into 384-well PCR plates (Roche) using a Multidrop Combi (ThermoFisher). Compounds (63 nL) or DMSO vehicle control (63 nL) were subsequently pinned using a pin tool (GNF) and incubated for 1 h at 37 °C. Plates were sealed and heated at the indicated temperature for 3.5 min and cooled to 25 °C using AB qPCR machine (Roche) using ramp speed of 1.5 °C/sec for heating phase and max ramp rate for the cooling phase. […] Samples were analyzed for luminescence intensity using a ViewLux reader.
Cells were transfected and harvested as above (384-well protocol). Cells were dispensed (5 µL cell/well) into 1,536-well white plates (Aurora, cyclic olefin polymer, cat# EWB041000A) using a Multidrop Combi. Compounds (23 nL) were subsequently pinned using a pin tool (Wako Automation) and incubated for 1 h at 37 °C. Plates were heated at the indicated temperature and time using a heating block (see below) and cooled to 25 °C. […] Plates were centrifuged and analyzed for luminescence intensity using a ViewLux reader. […]

[1] = target: T2, human lactate dehydrogenase 5 (Homo sapiens, UniProt P00338); test: LDHA biochemical (enzymatic) assay; conditions: MIPE library screen
T2 construct: purchased Meridian Life Science, Inc. A38558H
Protocol: The LDHA biochemical assay was performed as previously described. Briefly, 3 µL of human lactate dehydrogenase 5 (2 nM final) (no. A38558H, Meridian Life Science, Inc.) in LDH assay buffer (200 mM Tris HCl, pH 7.4, 100 µM EDTA, and 0.01% Tween-20) was added to a black solid bottom 1536-well assay plate (Greiner Bio-One). Following compound pin transfer (23 nL), 1 µL of substrate solution containing NADH (0.06 mM final) and sodium pyruvate (0.2 mM final) (Sigma-Aldrich) in LDH assay buffer was dispensed to initiate the reaction. After 5 min incubation at room temperature, 1 µL of detection reagent [C. kluyveri diaphorase (0.133 mg/mL final, Sigma-Aldrich) and resazurin sodium salt (37 µM final, Sigma-Aldrich) in LDH assay buffer] was added to each well. Plates were immediately transferred to a ViewLux reader and any resulting resorufin fluorescence was measured (ex 540 nm, em 590 nm) at 0 and 10 min. Fluorescence was normalized using enzyme-free and DMSO-treated control wells on each plate.

SMILES: COc1ncc(-c2ccc3c(Nc4cc(Oc5cc(F)cc(F)c5)cc(C(=O)O)c4)c(S(=O)(=O)NC4CC4)cnc3c2)c(OC)n1 [GSK2837808A]
- thermal stabilization of LDHA-86b, re-test of screen hits (LDHA-86b): confirmed
- activity in biochemical screen for LDHA enzymatic activity [1]: common hit
